# Results from PubChem BioAssay (NCI).
#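 Interpolation was linear, between the two tested concentrations surrounding the appropriate level; five concentrations were tested over 48 hours in 96-well plates. The concentration for full growth arrest is given as TGI.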
# Key:
# Assay in all cases: NCI-60 cell line screen, 48 h
# 786-0 renal = test system: 786-0 renal
# A498 renal = test system: A498 renal
# ACHN renal = test system: ACHN renal
# CAKI-1 renal = test system: CAKI-1 renal
# CCRF-CEM leukemia = test system: CCRF-CEM leukemia
# COLO 205 colon = test system: COLO 205 colon
# DU-145 prostate = test system: DU-145 prostate
# EKVX NSCLC = test system: EKVX NSCLC
# HCC-2998 colon = test system: HCC-2998 colon
# HCT-116 colon = test system: HCT-116 colon
# HCT-15 colon = test system: HCT-15 colon
# HL-60(TB) leukemia = test system: HL-60(TB) leukemia
# HOP-62 NSCLC = test system: HOP-62 NSCLC
# HOP-92 NSCLC = test system: HOP-92 NSCLC
# HS 578T breast = test system: HS 578T breast
# HT29 colon = test system: HT29 colon
# IGROV1 ovarian = test system: IGROV1 ovarian
# K-562 leukemia = test system: K-562 leukemia
# KM12 colon = test system: KM12 colon
# LOX IMVI melanoma = test system: LOX IMVI melanoma
# MALME-3M melanoma = test system: MALME-3M melanoma
# MDA-MB-231 breast = test system: MDA-MB-231 breast
# MDA-MB-435 = test system: MDA-MB-435
# MDA-N = test system: MDA-N
# MOLT-4 leukemia = test system: MOLT-4 leukemia
# NCI-H226 lung = test system: NCI-H226 lung
# NCI-H23 lung = test system: NCI-H23 lung
# NCI-H460 lung = test system: NCI-H460 lung
# NCI-H522 lung = test system: NCI-H522 lung
# NCI/ADR-RES ovarian = test system: NCI/ADR-RES ovarian
# OVCAR-3 ovarian = test system: OVCAR-3 ovarian
# OVCAR-4 ovarian = test system: OVCAR-4 ovarian
# OVCAR-8 ovarian = test system: OVCAR-8 ovarian
# PC-3 prostate = test system: PC-3 prostate
# RPMI-8226 leukemia = test system: RPMI-8226 leukemia
# SF-268 CNS = test system: SF-268 CNS
# SK-MEL-2 melanoma = test system: SK-MEL-2 melanoma
# SK-MEL-28 melanoma = test system: SK-MEL-28 melanoma
# SK-MEL-5 melanoma = test system: SK-MEL-5 melanoma
# SN12C renal = test system: SN12C renal
# SNB-19 CNS = test system: SNB-19 CNS
# SNB-75 CNS = test system: SNB-75 CNS
# SW-620 colon = test system: SW-620 colon
# T-47D breast = test system: T-47D breast
# TK-10 renal = test system: TK-10 renal
# U251 CNS = test system: U251 CNS
# UACC-257 melanoma = test system: UACC-257 melanoma
# UACC-62 melanoma = test system: UACC-62 melanoma
# UO-31 renal = test system: UO-31 renal
# A549 NSCLC = test system: A549 NSCLC
# BT-549 breast = test system: BT-549 breast
# M14 melanoma = test system: M14 melanoma
# MCF7 breast = test system: MCF7 breast
# OVCAR-5 ovarian = test system: OVCAR-5 ovarian
# RXF 393 renal = test system: RXF 393 renal
# SF-295 CNS = test system: SF-295 CNS
# SF-539 CNS = test system: SF-539 CNS
# SK-OV-3 ovarian = test system: SK-OV-3 ovarian
# SR leukemia = test system: SR leukemia
compound,measurement,setting,value
O=c1oc2ccccc2c(O)c1C(c1ccco1)c1c(O)c2ccccc2oc1=O,TGI,786-0 renal,55.5 µM
same,TGI,A498 renal,> 100 µM
same,TGI,ACHN renal,55.8 µM
same,TGI,CAKI-1 renal,42.4 µM
same,TGI,CCRF-CEM leukemia,73.8 µM
same,TGI,COLO 205 colon,48.9 µM
same,TGI,DU-145 prostate,> 100 µM
same,TGI,EKVX NSCLC,> 100 µM
same,TGI,HCC-2998 colon,55.1 µM
same,TGI,HCT-116 colon,> 100 µM
same,TGI,HCT-15 colon,41.4 µM
same,TGI,HL-60(TB) leukemia,> 100 µM
same,TGI,HOP-62 NSCLC,> 100 µM
same,TGI,HOP-92 NSCLC,> 100 µM
same,TGI,HS 578T breast,> 100 µM
same,TGI,HT29 colon,> 100 µM
same,TGI,IGROV1 ovarian,45.8 µM
same,TGI,K-562 leukemia,> 100 µM
same,TGI,KM12 colon,> 100 µM
same,TGI,LOX IMVI melanoma,61.1 µM
same,TGI,MALME-3M melanoma,41.7 µM
same,TGI,MDA-MB-231 breast,36 µM
same,TGI,MDA-MB-435,85.4 µM
same,TGI,MDA-N,44.9 µM
same,TGI,MOLT-4 leukemia,62.1 µM
same,TGI,NCI-H226 lung,> 100 µM
same,TGI,NCI-H23 lung,> 100 µM
same,TGI,NCI-H460 lung,> 100 µM
same,TGI,NCI-H522 lung,41.8 µM
same,TGI,NCI/ADR-RES ovarian,> 100 µM
same,TGI,OVCAR-3 ovarian,> 100 µM
same,TGI,OVCAR-4 ovarian,> 100 µM
same,TGI,OVCAR-8 ovarian,82 µM
same,TGI,PC-3 prostate,> 100 µM
same,TGI,RPMI-8226 leukemia,66.1 µM
same,TGI,SF-268 CNS,79.8 µM
same,TGI,SK-MEL-2 melanoma,> 100 µM
same,TGI,SK-MEL-28 melanoma,52.1 µM
same,TGI,SK-MEL-5 melanoma,> 100 µM
same,TGI,SN12C renal,63.1 µM
same,TGI,SNB-19 CNS,> 100 µM
same,TGI,SNB-75 CNS,95.9 µM
same,TGI,SW-620 colon,49.8 µM
same,TGI,T-47D breast,> 100 µM
same,TGI,TK-10 renal,80.2 µM
same,TGI,U251 CNS,61.8 µM
same,TGI,UACC-257 melanoma,63.4 µM
same,TGI,UACC-62 melanoma,70 µM
same,TGI,UO-31 renal,43.9 µM
CN1CN(c2ccccc2)C2(CCN(CCCSc3ccccc3NC(=O)/C=C/c3ccccc3)CC2)C1=O,TGI,786-0 renal,29.9 µM
same,TGI,A498 renal,6.98 µM
same,TGI,A549 NSCLC,> 87.3 µM
same,TGI,ACHN renal,9.81 µM
same,TGI,BT-549 breast,12 µM
same,TGI,CAKI-1 renal,> 26.5 µM
same,TGI,CCRF-CEM leukemia,> 100 µM
same,TGI,COLO 205 colon,4.53 µM
same,TGI,DU-145 prostate,18.2 µM
same,TGI,EKVX NSCLC,44.5 µM
same,TGI,HCC-2998 colon,20.6 µM
same,TGI,HCT-116 colon,8.76 µM
same,TGI,HCT-15 colon,26.5 µM
same,TGI,HL-60(TB) leukemia,23.8 µM
same,TGI,HOP-62 NSCLC,5.8 µM
same,TGI,HS 578T breast,15 µM
same,TGI,HT29 colon,5.75 µM
same,TGI,IGROV1 ovarian,6.61 µM
same,TGI,K-562 leukemia,15.6 µM
same,TGI,KM12 colon,17.9 µM
same,TGI,LOX IMVI melanoma,4.61 µM
same,TGI,M14 melanoma,3.89 µM
same,TGI,MALME-3M melanoma,4.77 µM
same,TGI,MCF7 breast,> 49.8 µM
same,TGI,MDA-MB-231 breast,3.32 µM
same,TGI,MDA-MB-435,6.91 µM
same,TGI,MDA-N,6.33 µM
same,TGI,MOLT-4 leukemia,7 µM
same,TGI,NCI-H226 lung,5.56 µM
same,TGI,NCI-H23 lung,25.1 µM
same,TGI,NCI-H460 lung,14.8 µM
same,TGI,NCI-H522 lung,62.4 µM
same,TGI,NCI/ADR-RES ovarian,22.4 µM
same,TGI,OVCAR-3 ovarian,13.3 µM
same,TGI,OVCAR-4 ovarian,> 37 µM
same,TGI,OVCAR-5 ovarian,> 60.5 µM
same,TGI,OVCAR-8 ovarian,32.6 µM
same,TGI,PC-3 prostate,23.5 µM
same,TGI,RXF 393 renal,31.9 µM
same,TGI,SF-268 CNS,> 46 µM
same,TGI,SF-295 CNS,7.95 µM
same,TGI,SF-539 CNS,6.45 µM
same,TGI,SK-MEL-2 melanoma,6.12 µM
same,TGI,SK-MEL-28 melanoma,6.09 µM
same,TGI,SK-MEL-5 melanoma,9.18 µM
same,TGI,SK-OV-3 ovarian,> 42.3 µM
same,TGI,SN12C renal,15.1 µM
same,TGI,SNB-19 CNS,25.1 µM
same,TGI,SNB-75 CNS,22.8 µM
same,TGI,SR leukemia,12.3 µM
same,TGI,SW-620 colon,26.3 µM
same,TGI,T-47D breast,> 59.7 µM
same,TGI,TK-10 renal,34.4 µM
same,TGI,U251 CNS,22.5 µM
same,TGI,UACC-257 melanoma,3.34 µM
same,TGI,UACC-62 melanoma,6.37 µM
same,TGI,UO-31 renal,14.1 µM
